# Measurements as given in patent publication US20220089575A1, “FARNESOID X RECEPTOR AGONISTS AND USES THEREOF” (Metacrine, Inc., priority 2017, published 2022).
# Molecular target: T1, hFXR (Homo sapiens, UniProt Q96RI1)
# T1 construct: expressed in transfected cells; host or cells: CV-1 cells
# T1 sequence (Q96RI1 1-486): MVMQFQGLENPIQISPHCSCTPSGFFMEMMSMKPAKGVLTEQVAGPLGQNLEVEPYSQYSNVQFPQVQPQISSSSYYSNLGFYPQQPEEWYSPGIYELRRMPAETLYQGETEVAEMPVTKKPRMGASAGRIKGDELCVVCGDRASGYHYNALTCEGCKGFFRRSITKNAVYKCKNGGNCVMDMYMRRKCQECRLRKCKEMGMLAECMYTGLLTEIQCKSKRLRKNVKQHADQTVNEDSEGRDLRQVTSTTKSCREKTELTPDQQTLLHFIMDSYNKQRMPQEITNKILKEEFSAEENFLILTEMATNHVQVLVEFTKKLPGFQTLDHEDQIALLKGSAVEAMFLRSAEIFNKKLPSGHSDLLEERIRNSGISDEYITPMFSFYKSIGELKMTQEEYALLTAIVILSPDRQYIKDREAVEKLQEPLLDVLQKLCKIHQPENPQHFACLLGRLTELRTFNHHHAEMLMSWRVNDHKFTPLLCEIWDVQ
# T1 sequence (P19793 1-462 partner): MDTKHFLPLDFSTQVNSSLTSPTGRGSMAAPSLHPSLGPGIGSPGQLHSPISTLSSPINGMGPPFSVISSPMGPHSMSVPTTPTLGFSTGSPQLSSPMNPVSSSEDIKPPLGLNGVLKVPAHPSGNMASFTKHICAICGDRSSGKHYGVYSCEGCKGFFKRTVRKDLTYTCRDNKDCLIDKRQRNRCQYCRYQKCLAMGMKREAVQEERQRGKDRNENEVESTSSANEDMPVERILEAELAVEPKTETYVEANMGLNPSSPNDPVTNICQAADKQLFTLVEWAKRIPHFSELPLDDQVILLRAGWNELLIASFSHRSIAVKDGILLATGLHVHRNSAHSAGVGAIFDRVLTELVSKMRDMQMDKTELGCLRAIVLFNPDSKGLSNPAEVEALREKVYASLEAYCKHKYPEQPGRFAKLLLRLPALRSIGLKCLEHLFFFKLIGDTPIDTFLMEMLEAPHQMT
# Test: In Vitro FXR Assay (TK): TK-ECRE-luc reporter in transfected CV-1 cells
# Format: cell-based
# Conditions: 18 hrs, luminescence, maximum efficacy of <25% of the Fexarmine control classified as '+'
# How it was run: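 Cells are seeded in charcoal double-stripped FBS medium, transfected overnight with FXR/RXR expression and ECRE-driven luciferase reporter plasmids, then treated with serially diluted compounds for 18 h. Lysates are measured for luciferase light output.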
row,Structure (SMILES),EC50 [nM]
1,"CN(C)c1ccc([C@H]2CC[C@H](CN(c3cccc(-c4cnc(C5CC5)s4)c3)C(=O)[C@H]3CC[C@H](C(=O)O)CC3)CC2)cn1 [Compound 16, trans-4-((3-(2-Cyclopropylthiazol-5-yl)phenyl)((trans-4-(6-(dimethylamino)pyridin-3-yl)cyclohexyl)methyl)carbamoyl)cyclohexanecarboxylic acid]",≤ 250
2,"COc1ccc([C@H]2CC[C@H](CN(c3cc(-c4coc(C5CC5)n4)ccn3)C(=O)[C@H]3CC[C@H](OC(N)=O)CC3)CC2)nc1C [Compound 5.48, trans-4-((4-(2-Cyclopropyloxazol-4-yl)pyridine-2-yl)((trans-4-(5-methoxy-6-methylpyridin-2-yl)cyclohexyl)methyl)carbamoyl)cyclohexyl carbamate]",≤ 250
3,"COC(=O)NC[C@H]1CC[C@H](C(=O)N(C[C@H]2CC[C@H](c3ccc(OC)c(C)n3)CC2)c2cc(-c3coc(C4CC4)n3)ccn2)CC1 [Compound 26.27, Methyl ((trans-4-((4-(2-cyclopropyloxazol-4-yl)pyridin-2-yl)((trans-4-(5-methoxy-6-methylpyridin-2-yl)cyclohexyl)methyl)carbamoyl)cyclohexyl)methyl)carbamate]",≤ 250
4,"COc1ccc([C@H]2CC[C@H](CN(c3cccc(-c4cnn(C5CC5)c4)c3)C(=O)[C@H]3CC[C@H](OC(=O)NCC(=O)O)CC3)CC2)cc1C [Compound 7.18, 2-((((trans-4-((3-(1-Cyclopropyl-1H-pyrazol-4-yl)phenyl)((trans-4-(4-methoxy-3-methylphenyl)cyclohexyl)methyl)carbamoyl)cyclohexyl)oxy)carbonyl)amino)acetic acid]",≤ 250
5,"COc1ccc([C@H]2CC[C@H](CN(c3cccc(-c4cnn(C5CC5)c4)c3)C(=O)[C@H]3CC[C@H](C(=O)O)CC3)CC2)cc1C [Compound 17.13, trans-4-((3-(1-Cyclopropyl-1H-pyrazol-4-yl)phenyl)((trans-4-(4-methoxy-3-methylphenyl)cyclohexyl)methyl)carbamoyl)cyclohexanecarboxylic acid]",≤ 250
6,"COc1ccc([C@H]2CC[C@H](CN(c3cccc(-c4cnn(C5CC5)c4)c3)C(=O)[C@H]3CC[C@H](NC(=O)CNC(C)=O)CC3)CC2)cc1C [Compound 31.01, trans-4-(2-Acetamidoacetamido)-N-(3-(1-cyclopropyl-1H-pyrazol-4-yl)phenyl)-N-((trans-4-(4-methoxy-3-methylphenyl)cyclohexyl)methyl)cyclohexanecarboxamide]",≥ 1000
7,"CNC(=O)O[C@H]1CC[C@H](C(=O)N(C[C@H]2CC[C@H](c3ccc(OC)c(C)c3)CC2)c2cc(-c3coc(C4CC4)n3)ccn2)CC1 [Compound 5.33, trans-4-((4-(2-Cyclopropyloxazol-4-yl)pyridine-2-yl)((trans-4-(4-methoxy-3-methylphenyl)cyclohexyl)methyl)carbamoyl)cyclohexyl methylcarbamate]",≤ 250
8,"COC(=O)O[C@H]1CC[C@H](C(=O)N(C[C@H]2CC[C@H](c3ccc(OC)c(C)n3)CC2)c2cc(-c3coc(C4CC4)n3)ccn2)CC1 [Compound 5.49, trans-4-((4-(2-Cyclopropyloxazol-4-yl)pyridine-2-yl)((trans-4-(5-methoxy-6-methylpyridin-2-yl)cyclohexyl)methyl)carbamoyl)cyclohexyl methyl carbonate]",≤ 250
9,"COc1ccc([C@H]2CC[C@H](CN(c3cccc(-c4cnn(C5CC5)c4)c3)C(=O)[C@H]3CC[C@H](NC(=O)OCCO)CC3)CC2)cc1C [Compound 26.05, 2-Hydroxyethyl (trans-4-((3-(1-cyclopropyl-1H-pyrazol-4-yl)phenyl)((trans-4-(4-methoxy-3-methylphenyl)cyclohexyl)methyl)carbamoyl)cyclohexyl)carbamate]",≤ 250
